Laboratory results published in paper PMC4074212, “Tetra- and Pentacyclic Triterpene Acids from the Ancient Anti-inflammatory Remedy Frankincense as Inhibitors of Microsomal Prostaglandin E2 Synthase-1” (Journal of Natural Products, 2014).
Entries after “also recorded” stand apart in the source; their conditions may differ.

Legend:
[1] = test system: phorbol ester-induced ear inflammation; parameters: method as in PMID 16621377; settings: applied topically, mice; cited from earlier work
[2] = target: T1, mPGES-1 (Homo sapiens, UniProt O14684); assay: cell-free mPGES-1 activity assay (microsomes of IL-1β-stimulated A549 cells, PGE2 formation from PGH2); format: biochemical; settings: for inhibition of mPGES-1 activity (in words): tested at / up to 10 μM
T1 construct: using microsomes of IL-1β-stimulated A549 cells as enzyme source; endogenous in cells; host or cells: A549 cells, IL-1β-induced, microsomal fraction
T1 sequence (O14684 1-152): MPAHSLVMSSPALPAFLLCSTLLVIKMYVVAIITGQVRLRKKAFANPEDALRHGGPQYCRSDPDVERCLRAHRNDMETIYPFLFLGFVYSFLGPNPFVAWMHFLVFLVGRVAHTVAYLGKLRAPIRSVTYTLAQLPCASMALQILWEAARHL

[3] = test system: COX enzymes; parameters: method as in PMID 17945191, PMID 20188172, PMID 24354175; settings: cited from earlier work

For `C=C(C)[C@@H]1CC[C@]2(C)CC[C@]3(C)[C@H](CC[C@@H]4[C@@]5(C)CC[C@H](O)[C@](C)(C(=O)O)[C@@H]5CC[C@]43C)[C@@H]12` [Compound 15, Lupeolic acid], the “inhibition of phorbol ester-induced ear inflammation” value [1] is listed as “inhibited”.
In the case of `C=C(C)[C@@H]1CC[C@]2(C)[C@H](CC=C3[C@@H]4[C@@H](C)[C@H](C)CC[C@]4(C)CC[C@]32C)[C@@]1(C)CCC(=O)O` [Compound 11, roburic acid], the “inhibition of mPGES-1 activity (in words)” value (from here on “inhibition … (in words)”) [2] is given as “failed to significantly inhibit; also recorded: not active” and the “concentration range of COX enzyme inhibition” value [3] is given as “two-digit micromolar range”.
In the case of `CC(C)[C@@H]1CC[C@]2(C)[C@H](CC=C3[C@@H]4[C@@H](C)[C@H](C)CC[C@]4(C)CC[C@]32C)[C@@]1(C)CCC(=O)O` [Compound 12, 4,(23)-dihydroroburic acid], the “inhibition … (in words)” value [2] is reported as “failed to significantly inhibit; also recorded: not active”.
In the case of `CC(C)[C@@H]1CC[C@]2(C)[C@H](CC=C3[C@@H]4CC(C)(C)CC[C@]4(C)CC[C@]32C)[C@@]1(C)CCC(=O)O` [Compound 14, 4,(23)-dihydronyctanthic acid], the “inhibition … (in words)” value [2] is reported as “failed to significantly inhibit; also recorded: inactive”.
For `CC(=O)O[C@@H]1CC[C@]2(C)C3=C(CC[C@H]2C1(C)C)[C@@]1(C)CC[C@@H]([C@H](CCC=C(C)C)C(=O)O)[C@]1(C)CC3` [Compound 6, 3α-acetoxy-8,24-dienetirucallic acid], the “concentration range of COX enzyme inhibition” value [3] is listed as “two-digit micromolar range”.
In the case of `C=C(C)[C@@H]1CC[C@]2(C)CC[C@]3(C)[C@H](CC[C@@H]4[C@@]5(C)CC[C@H](OC(C)=O)[C@](C)(C(=O)O)[C@@H]5CC[C@]43C)[C@@H]12` [Compound 16, 3-O-acetyllupeolic acid], the “inhibition of phorbol ester-induced ear inflammation” value [1] is listed as “inhibited”.
In the case of `CC(C)=CCC[C@H](C(=O)O)[C@@H]1CC[C@]2(C)C3=C(CC[C@@]12C)[C@@]1(C)CC[C@@H](O)C(C)(C)[C@@H]1CC3` [Compound 5, 3-α-hydroxy-8,24-dienetirucallic acid], the inhibition at 10 µM ([2]; at 10 μM) is reported as 96%.
